PMC5502391 (Chemical Science, 2015)

Target: avidin-bound TOPI-5 (Gallus gallus, UniProt P02701)
Assay: Displacement assay, TOPI-5–avidin complex
Assay type: binding
Conditions: complex 90 nM, compound 50 µM

Sequence of avidin-bound TOPI-5 (P02701 25-152): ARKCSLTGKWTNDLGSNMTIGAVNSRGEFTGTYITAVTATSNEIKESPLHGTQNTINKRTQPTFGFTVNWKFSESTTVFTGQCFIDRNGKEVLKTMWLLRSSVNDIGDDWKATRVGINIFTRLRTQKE

SMILES: O=C(O)CCCC[C@@H]1SC[C@@H]2NC(=O)N[C@@H]21 [biotin]
- displacement of avidin-bound TOPI-5: displacement
